For one experiment, the system named is 14-analyte M-DP panel. Put plainly: Pharmacodynamic M-DP score, 14-analyte panel (SomaLogic SOMAscan), clinical studies in RA. Conditions: for M-DP score mean difference ± SD, Good vs. No / M-DP score mean ± SD, DAS28-CRP response group Good / M-DP score mean ± SD, DAS28-CRP response group Moderate / M-DP score mean ± SD, DAS28-CRP response group No: response at week 24; for GMean M-DP scores, change: week 4 or latest time point evaluated (weeks 28, 28, and 12, respectively). The format is in vivo, human. From the text:
(§1) Serum samples and data from eight interventional clinical studies with seven different active treatments for RA or placebo treatment were obtained and analyzed: sirukumab (anti-IL-6) and placebo treatments in SIRROUND-M (NCT01689532; Takeuchi T, et al. Arthritis Res Ther. 2018 Mar. 7; 20(1): 42), SIRROUND-D (NCT01604343; Takeuchi T, et al. Ann Rheum Dis. 2017 Dec.; 76(12): 2001-2008), and SIRROUND-T (NCT01606761; Aletaha D, et al. Lancet. 2017 Mar. 25; 389(10075): 1206-1217); sirukumab and adalimumab (anti-TNF-alpha) treatments in SIRROUND-H (NCT02019472; Taylor PC, et al. Ann Rheum Dis. 2018 May; 77(5): 658-666); golimumab (anti-TNF-alpha) treatment in GO-FURTHER (NCT00973479; Weinblatt ME, et al. Ann Rheum Dis. 2013 March; 72(3): 381-9); guselkumab (anti-IL-23p19), ustekinumab (anti-IL-12/IL-23p40), and placebo treatments in CNTO1275ARA2001 (NCT01645280; Cox JD, et al. […]); JNJ-40346527 (colony-stimulating factor-1 inhibitor) and placebo treatments in 40346527ARA2001 (NCT01597739; Genovese MC, et al. J Rheumatol. 2015 October; 42(10): 1752-60). Plasma samples were obtained from the RA-MAP TACERA study (Cope AP, et al. Nat Rev Rheumatol. 2018 January; 14(1): 53-60) before (baseline) and 6-months after initiation of conventional synthetic disease-modifying anti-rheumatic drugs (csDMARDs). Details of treatment dose groups, concomitant methotrexate use, and previous experience with csDMARDs and biologics are reported in Table 1. The studies were conducted in accordance with the Declaration of Helsinki. The study protocols were reviewed and approved by an independent ethics committee or institutional review board for each study center. Written informed consent was obtained from all patients before study entry. Additional study details and patient characteristics are available in the referenced publications for each study. For SIRROUND-D and SIRROUND-T studies, sets of serum samples from demographically-matched healthy controls were obtained from commercial sources (BioIVT, Westbury, N.Y.).
(§2) Serum samples from baseline (week 0) and the time points indicated in Table 1 were provided for quantification of 1189 serum analytes using the SomaScan v3.1 platform (SomaLogic, Boulder, Colo.; www.somalogic.com), with the exception of RA-MAP TACERA, for which plasma samples were analyzed for 1301 analytes using the SomaScan v3.2 platform. For some studies, a redacted dataset reporting data for a subset of the analytes was obtained. Relative fluorescence unit (RFU) data were sequentially normalized for hybridization controls (internal standards per samples), median signal across all samples (assumes same total protein concentration across sample set), and calibration controls (common sample standards across analysis plates). Samples failed quality control standards defined by Somalogic were excluded from analyses. The normalized RFU values were log2-transformed for subsequent analyses.
(§3) Changes in analyte expression levels were calculated for individual samples as the log2 transform of the ratio of the analyte level at the indicated time point (visit level) over the analyte level at baseline (baseline level) for a given subject, i.e., log 2(visit level/baseline level). Changes in RA disease-associated analytes per sample were summarized using a pharmacodynamic (PD) molecular disease profile (M-DP) score, defined as the median value of the log 2(visit level/baseline level) values for analytes in the defined M-DP analyte set. […] PD M-DP scores in the log 2(visit level/baseline level) scale can be transformed to percent change from baseline, using the transformation: (2^M-DP score−1)×100%.
Statistical analyses were performed on log2-transformed data, for either normalized Relative fluorescence unit (RFU) datasets or within-subject fold/baseline datasets. Significance of differences between groups was evaluated using General Linear Models, with t-tests when comparing two groups. […]

Experiment [1] relates to 4-analyte M-DP panel (CRP, CXCL10, CXCL13, SAA). As to the kind of experiment: Pharmacodynamic M-DP score, 4-analyte panel CRP, CXCL10, CXCL13, SAA (SOMAscan), clinical studies in RA. It is filed as in vivo, human. Conditions: for M-DP score mean ± SD, All treated / M-DP score mean difference ± SD, Good vs. No / M-DP score mean ± SD, DAS28-CRP response group Good / M-DP score mean ± SD, DAS28-CRP response group Moderate / M-DP score mean ± SD, DAS28-CRP response group No: 4-analyte, CNTO1275ARA2001, ustekinumab SC 90 mg or guselkumab SC 50 or 200 mg; for M-DP score mean difference ± SD, Good vs. No / M-DP score mean ± SD, DAS28-CRP response group Good / M-DP score mean ± SD, DAS28-CRP response group Moderate / M-DP score mean ± SD, DAS28-CRP response group No: response at week 24.
Description: as §1, §2, §3
In selecting the best minimal set of analytes that performs similarly to the full 14-analyte set, analyte sets that results in significant associations between DAS28-CRP EULAR good vs. no response with p<0.05 for each study were prioritized (Table 4). […]

The next experiment relates to RA patients. The following applies: cited from earlier work; for clinical efficacy in the underlying clinical studies: RA patients.
For experiment [2], the system named is 4-analyte M-DP panel (CRP, SAA, CXCL10, CXCL13). Put plainly: Pharmacodynamic 4-analyte M-DP score by MSD U-PLEX, CORRONA CERTAIN biorepository serum. It is filed as in vivo, human. Conditions: U-PLEX 4-analyte; for M-DP score GMean decrease: all treated. Here is the method: PD M-DP scores for the 4-analyte panel were calculated based on these concentrations of CRP, SAA, CXCL10, and CXCL13.
These samples were not previously evaluated for the M-DP panel development or reduction.

Setting [3] is: CNTO1275ARA2001, score at week 4, ustekinumab SC 90 mg or guselkumab SC 50 or 200 mg.
[4] abbreviates: CNTO1275ARA2001, score at week 28, ustekinumab SC 90 mg or guselkumab SC 50 or 200 mg.
Where [5] appears, read: CERTAIN Biorepository RA patients.

On to guselkumab [reference compound], for which, in the experiment on 14-analyte M-DP panel (setting [3]), the “M-DP score mean ± SD, All treated” value is −0.01 ± 0.19 log2 (fold/baseline); the “M-DP score mean difference ± SD, Good vs. No” value was 0.00 ± 0.19 log2 (fold/baseline); the “M-DP score mean ± SD, DAS28-CRP response group Good” value is listed as −0.04 ± 0.19 log2 (fold/baseline); the “M-DP score mean ± SD, DAS28-CRP response group Moderate” value was 0.02 ± 0.20 log2 (fold/baseline). The “M-DP score mean ± SD, DAS28-CRP response group No” value in the experiment with 14-analyte M-DP panel (setting [3]) was −0.04 ± 0.19 [12] log2 (fold/baseline). For the same substance, in the experiment with 14-analyte M-DP panel (setting [4]), the “M-DP score mean ± SD, All treated” value was −0.03 ± 0.26 log2 (fold/baseline); the “M-DP score mean difference ± SD, Good vs. No” value was −0.03 ± 0.21 log2 (fold/baseline); the “M-DP score mean ± SD, DAS28-CRP response group Good” value is on record as −0.08 ± 0.10 log2 (fold/baseline); the “M-DP score mean ± SD, DAS28-CRP response group Moderate” value is 0.01 ± 0.34 log2 (fold/baseline). Besides, the “M-DP score mean ± SD, DAS28-CRP response group No” value in the experiment on 14-analyte M-DP panel (setting [4]) is −0.05 ± 0.25 [12] log2 (fold/baseline). In the experiment on 14-analyte M-DP panel, the “GMean M-DP scores, change” value is on record as “not decreased”. Besides, in experiment [1] (score at week 4), the “M-DP score mean ± SD, All treated” value is −0.12 ± 0.39 log2 (fold/baseline); the “M-DP score mean difference ± SD, Good vs. No” value was −0.11 ± 0.33 (0.4781) log2 (fold/baseline); the “M-DP score mean ± SD, DAS28-CRP response group Good” value was −0.19 ± 0.30 log2 (fold/baseline); the “M-DP score mean ± SD, DAS28-CRP response group Moderate” value is listed as −0.11 ± 0.49 log2 (fold/baseline). For the same substance, in experiment [1] (score at week 4), the “M-DP score mean ± SD, DAS28-CRP response group No” value is on record as −0.08 ± 0.35 log2 (fold/baseline). For the same substance, in experiment [1] (score at week 28), the “M-DP score mean ± SD, All treated” value was −0.07 ± 0.37 log2 (fold/baseline); the “M-DP score mean difference ± SD, Good vs. No” value is −0.12 ± 0.38 (0.5645) log2 (fold/baseline); the “M-DP score mean ± SD, DAS28-CRP response group Good” value is listed as −0.12 ± 0.38 log2 (fold/baseline); the “M-DP score mean ± SD, DAS28-CRP response group Moderate” value is given as −0.10 ± 0.39 log2 (fold/baseline). Besides, the “M-DP score mean ± SD, DAS28-CRP response group No” value in experiment [1] (score at week 28) is reported as −0.01 ± 0.38 log2 (fold/baseline). Further, the “clinical efficacy in the underlying clinical studies” value in the experiment with RA patients is given as “not clinically efficacious”.

Regarding rituximab, the “M-DP score GMean decrease” value in experiment [2] (3-months) is reported as 30%. Moreover, the “M-DP score GMean decrease” value in experiment [2] (6-months) was found to be 36%. Besides, in experiment [2] (score at month 3M), the “M-DP score mean ± SD, 6-month DAS28-CRP response group Good” value was −0.44 ± 1.13 [7] log2 (fold/baseline); the “M-DP score mean ± SD, 6-month DAS28-CRP response group Moderate” value was −0.71 ± 1.62 [4] log2 (fold/baseline); the “M-DP score mean ± SD, 6-month DAS28-CRP response group No” value was −0.23 n.a. [1] log2 (fold/baseline); the “M-DP score mean ± SD, All treated” value is −0.51 ± 1.20 [12] log2 (fold/baseline). For the same substance, in experiment [2] (score at month 6M), the “M-DP score mean ± SD, 6-month DAS28-CRP response group Good” value was −0.96 ± 0.79 [7]* log2 (fold/baseline); the “M-DP score mean ± SD, 6-month DAS28-CRP response group Moderate” value was −0.24 ± 1.23 [4] log2 (fold/baseline); the “M-DP score mean ± SD, 6-month DAS28-CRP response group No” value was −0.01 n.a. [1] log2 (fold/baseline); the “M-DP score mean ± SD, All treated” value was −0.64 ± 0.95 [12] * log2 (fold/baseline). Further, in the experiment on RA patients (setting [5]), the “EULAR DAS28-CRP clinical response rate, good response” value is given as 50%; the “EULAR DAS28-CRP clinical response rate, moderate response” value is recorded as 32%; the “EULAR DAS28-CRP clinical response rate, no response” value was 18%.

Regarding ustekinumab [reference compound], in the experiment with 14-analyte M-DP panel (setting [3]), the “M-DP score mean ± SD, All treated” value is reported as −0.08 ± 0.34 log2 (fold/baseline); the “M-DP score mean difference ± SD, Good vs. No” value is on record as −0.32 ± 0.32 log2 (fold/baseline); the “M-DP score mean ± SD, DAS28-CRP response group Good” value was −0.24 ± 0.34 log2 (fold/baseline); the “M-DP score mean ± SD, DAS28-CRP response group Moderate” value is on record as −0.04 ± 0.29 log2 (fold/baseline). Also, the “M-DP score mean ± SD, DAS28-CRP response group No” value in the experiment on 14-analyte M-DP panel (setting [3]) is 0.08 ± 0.31 [31] log2 (fold/baseline). In the experiment with 14-analyte M-DP panel (setting [4]), the “M-DP score mean ± SD, All treated” value was −0.09 ± 0.43 log2 (fold/baseline); the “M-DP score mean difference ± SD, Good vs. No” value is −0.49 ± 0.41 log2 (fold/baseline); the “M-DP score mean ± SD, DAS28-CRP response group Good” value is given as −0.34 ± 0.33 log2 (fold/baseline); the “M-DP score mean ± SD, DAS28-CRP response group Moderate” value is reported as −0.05 ± 0.23 log2 (fold/baseline). The “M-DP score mean ± SD, DAS28-CRP response group No” value with 14-analyte M-DP panel (setting [4]) is −0.15 ± 0.49 [13] log2 (fold/baseline). Further, the “GMean M-DP scores, change” value with 14-analyte M-DP panel is given as “not decreased”. In addition, in experiment [1] (score at week 4), the “M-DP score mean ± SD, All treated” value is −0.05 ± 0.77 log2 (fold/baseline); the “M-DP score mean difference ± SD, Good vs. No” value is −0.81 ± 0.83 (0.0469) log2 (fold/baseline); the “M-DP score mean ± SD, DAS28-CRP response group Good” value is −0.49 ± 0.27 log2 (fold/baseline); the “M-DP score mean ± SD, DAS28-CRP response group Moderate” value is listed as 0.06 ± 0.41 log2 (fold/baseline). The “M-DP score mean ± SD, DAS28-CRP response group No” value in experiment [1] (score at week 4) is 0.33 ± 0.98 log2 (fold/baseline). Further, in experiment [1] (score at week 28), the “M-DP score mean ± SD, All treated” value is listed as 0.04 ± 0.84 log2 (fold/baseline); the “M-DP score mean difference ± SD, Good vs. No” value is −0.94 ± 0.82 (0.0323) log2 (fold/baseline); the “M-DP score mean ± SD, DAS28-CRP response group Good” value was −0.53 ± 0.68 log2 (fold/baseline); the “M-DP score mean ± SD, DAS28-CRP response group Moderate” value was −0.04 ± 0.53 log2 (fold/baseline). Further, in experiment [1] (score at week 28), the “M-DP score mean ± SD, DAS28-CRP response group No” value is recorded as 0.41 ± 0.94 log2 (fold/baseline). In addition, the “M-DP score effect size (decrease), EULAR DAS28-CRP good responders” value in experiment [1] (week 4 M-DP scores) is more than 1.0 standard deviation. Besides, the “clinical efficacy in the underlying clinical studies” value with RA patients is reported as “not clinically efficacious”.

Source of the values: patent US20230243822A1, “MOLECULAR DISEASE PROFILE AND USE THEREOF FOR MONITORING AND TREATING RHEUMATAOID ARTHRITIS” (JANSSEN BIOTECH, INC., priority 2020, published 2023).
